Columns and labels:
DNA of pEGFP-N3 = experiment: Gel electrophoresis shift assay (binding/complexation of pDNA); details: pEGFP-N3 plasmid, N/P ratios between 0 and 10, FIG. 3
Protocol: Plasmid pEGFP-N3, used for the preparation of the DNA complexes and the transfection assay, is a 4729-bp (base pairs) plasmid. The quantities of polycationic amphiphilic βCD derivatives used were calculated on the basis of the desired DNA concentration, 0.02 mg/ml (50 μM phosphate), the N/P ratio, the molecular weight and the number of positive charges in the selected CD derivative. The experiments were performed for N/P 5, 10, 30 and 50. The DNA was diluted in milli-Q water to a final phosphate concentration of 50 μM; subsequently, the desired quantity of CD derivative was added from a 20-mg/ml solution (1:2 of Me2SO-water). The preparation was stirred with a vortex for a few seconds and incubated for 30 minutes.
The binding capacity of the polycationic amphiphilic DNA-βCD complex was analysed by gel electrophoresis. The stock solutions of βCD derivatives were prepared in 1:2 Me2SO-water, and the DNA was dissolved in 150 mM NaCl. The DNA of pEGFP-N3 (10 μl at 0.1 μg/μl) was mixed with an equal volume of βCD derivative using N/P ratios ranging between 0 and 10, and incubated for 30 min at room temperature prior to the addition of loading buffer (2 μl). One aliquot (5 μl) of each sample was subjected to agarose gel electrophoresis (0.8% w/v) in TAE buffer (40 mM Tris-acetate, 1 mM EDTA). The electrophoresis was performed at 7 V/cm and the gels were stained with ethidium bromide following the electrophoresis. The quantification of the intensity of the bands was performed with the NIH Image software (Rasband et al. 1995. Microbeam Analysis Soc. J. 4, 137-149). A value of 100 was assigned to the intensity of the band for naked DNA.

CHO-k1 cells = experiment: In vitro gene transfection of pEGFP-N3 complexes, GFP fluorescence; format: cell-based, Chinese hamster; details: pEGFP-N3 plasmid, N/P ratios between 0.1 and 20, FIG. 5
Protocol: Ovarian cells of wild-type Chinese hamsters (CHO-k1; no. ATCC CCL-61) were cultured in Dulbecco's modified Eagle's medium (DMEM) supplemented with 10% (v/v) of foetal bovine serum, 2 mM glutamine plus, 100 U/ml of penicillin and […] of streptomycin. Prior to the transfection, the cells were seeded in 24 well plates and incubated for 24 h, to reach an 80%-90% cell confluence. For the transfection experiments, plasmid pEGFP-N3 (1 μg) was mixed with the corresponding CD derivative at N/P ratios ranging between 0.1 and 20, at room temperature for 20 minutes, in a final volume of 20 μl. The mixture was diluted to 0.5 ml with DMEM without serum and added to each well. The untransfected cells and the naked pEGFP-N3 were used as negative controls. As a positive control, a transfection experiment was performed using 1 μl of Lipofectamine™ 2000 (Invitrogen) and 1.0 μg of DNA, following the manufacturer's instructions. The cells were incubated with the DNA-polycationic amphiphilic βCD mixtures for 18 h; subsequently, the transfection medium was eliminated and the cells were further cultured in DMEM medium plus 10% FBS for an additional 48-h period.
The transfected cells were washed three times with PBS and 600 μl of 0.5% triton X-100 in PBS. The plates were stirred for 10 min at room temperature, the lysate was recovered and the fluorescence was quantified in a Shimadzu RF-5301PC fluorimeter with an excitation wavelength of 460 nm (5 nm) and an emission wavelength of 510 nm (10 nm). The protein concentration was measured using the Bio-Rad protein assay (Hercules, Calif., USA).

[1] = tested on: DNA of pEGFP-N3 (DNase I digestion); experiment: DNase protection assay of pDNA complexes; details: for protection of pDNA against degradation by DNase: pEGFP-N3 complexes, N/P=5, DNase I 45 minutes at 37° C., FIG. 4
Protocol: The DNA of pEGFP-N3 (10 μl at 0.1 μg/μl) was mixed with an equal volume of stock solution of βCD derivative using N/P=5, and incubated for 30 min at room temperature. 15 μl of a DNase I solution (0.1 mg/ml in 50 mM Tris-HCl, pH 8, 2000 U/mg) were added to the mixture and it was incubated for 45 minutes at 37° C. Following the digestion, 20 μl of a 10% SDS solution were added and the samples were incubated for 2 h at 85° C. Finally, one aliquot (20 μl) of each sample was subjected to agarose gel electrophoresis (0.8% w/v) in TAE buffer.

protection of pDNA against the environment ([1]; 10:pDNA complexes, N/P values greater than 4) | Substance | complexation capacity / compaction of pDNA, stability of the CD:pDNA complex (DNA of pEGFP-N3) | transfection efficiency (CHO-k1 cells) | protection of pDNA against degradation by DNase [1]
 | Heptakis[6-(4-(2,2-diaminoethyl)aminomethyl)-1H-1,2,3-triazole-1-yl)-6-deoxy-2,3-di-O-myristoyl]cyclomaltoheptaose [Compound 11] | did not modify the complexation efficiency | drastically reduced the transfection capacity | 
 | Heptakis[6(2-(4-(2,2-diaminoethylaminomethyl)-1H-1,2,3-triazole-1-yl)acetamidoethylthio)-6-deoxy-2,3-di-O-hexanoyl]cyclomaltoheptaose [Compound 17] | the rigid motif was more advantageous than the flexible architecture | the rigid motif was more advantageous than the flexible architecture | the rigid motif was more advantageous than the flexible architecture
 | Heptakis[6(2-(4-aminomethyl-1H-1,2,3-triazole-1-yl)acetamidoethylthio)-6-deoxy-2,3-di-O-hexanoyl]cyclomaltoheptaose [Compound 16] | moderate increases | moderate increases | moderate increases
 | Heptakis[6-(4-aminomethyl-1H-1,2,3-triazole-1-yl)-6-deoxy-2,3-di-O-hexanoyl]cyclomaltoheptaose heptahydrochloride [Compound 9] | improved complexation capacities of pDNA as compared to non-amphiphilic analogue 18 | transfection levels remained very low | plasmid still remains accessible to DNase
complete protection | Heptakis[6-(4-(2,2-diaminoethylaminomethyl)-1H-1,2,3-triazole-1-yl)-6-deoxy-2,3-di-O-hexanoyl]cyclomaltoheptaose tetradecahydrochloride [Compound 10] | stable 10:pDNA complexes | surprisingly high transfection efficiencies, analogous to those obtained using Lipofectamine™ 2000 | 
